From ChEMBL document CHEMBL3817739, “Synthesis and cytotoxic evaluation of several oleanolic aciduracil/thymine conjugates” (Medchemcomm, 2016)

Columns and labels:
HepG2 = assay: Cytotoxicity against human HepG2 cells assessed as inhibition of cell proliferation after 72 hrs by MTT assay; type: functional, cell-based; settings: HepG2, 72 h
A549 = assay: Cytotoxicity against human A549 cells assessed as inhibition of cell proliferation after 72 hrs by MTT assay; type: functional, cell-based; settings: A549, 72 h
[1] = Cytotoxicity against human BGC823 cells assessed as inhibition of cell proliferation after 72 hrs by MTT assay; type: functional, cell-based; settings: BGC-823, 72 h
MCF7 = assay: Cytotoxicity against human MCF7 cells assessed as inhibition of cell proliferation after 72 hrs by MTT assay; type: functional, cell-based; settings: MCF7, 72 h
[2] = Cytotoxicity against human PC3 cells assessed as inhibition of cell proliferation after 72 hrs by MTT assay; type: functional, cell-based, PC-3
[3] = Homo sapiens, PC-3, 72 h, read-out: IC50

Row | SMILES | IC50 (HepG2) [µM] | IC50 (A549) [µM] | IC50 [1] [µM] | IC50 (MCF7) [µM] | IC50 [2, 3] [µM] | IC50 ([2]; pc-3)
1 | CC1(C)CC[C@]2(C(=O)OCCCCn3ccc(=O)n(CCCCOC(=O)[C@]45CCC(C)(C)C[C@H]4C4=CC[C@@H]6[C@@]7(C)CC[C@H](O)C(C)(C)[C@@H]7CC[C@@]6(C)[C@]4(C)CC5)c3=O)CC[C@]3(C)C(=CC[C@@H]4[C@@]5(C)CC[C@H](O)C(C)(C)[C@@H]5CC[C@]43C)[C@@H]2C1 | 3.95 | 4.09 | 0.15 | 130 | 4.79 | –
2 | CC1(C)CC[C@]2(C(=O)OCCCCCCCCn3ccc(=O)n(CCCCCCCCOC(=O)[C@]45CCC(C)(C)C[C@H]4C4=CC[C@@H]6[C@@]7(C)CC[C@H](O)C(C)(C)[C@@H]7CC[C@@]6(C)[C@]4(C)CC5)c3=O)CC[C@]3(C)C(=CC[C@@H]4[C@@]5(C)CC[C@H](O)C(C)(C)[C@@H]5CC[C@]43C)[C@@H]2C1 | 10.3 | 37.1 | 0.27 | 3.78 | 22.2 | –
3 | Cc1cn(CCCCCCCCOC(=O)[C@@]23CCC(C)(C)C[C@@H]2C2=CC[C@H]4[C@]5(C)CC[C@@H](O)C(C)(C)[C@H]5CC[C@]4(C)[C@@]2(C)CC3)c(=O)n(CCCCCCCCOC(=O)[C@@]23CCC(C)(C)C[C@@H]2C2=CC[C@H]4[C@]5(C)CC[C@@H](O)C(C)(C)[C@H]5CC[C@]4(C)[C@@]2(C)CC3)c1=O | 4.83 | < 0.1 | 3.11 | 4.45 | 20 | –
4 | Cc1cn(CCCCOC(=O)[C@]23CCC(C)(C)C[C@H]2C2=CC[C@@H]4[C@@]5(C)CC[C@H](O)C(C)(C)[C@@H]5CC[C@@]4(C)[C@]2(C)CC3)c(=O)[nH]c1=O | 2.41 | 4.73 | 1.13 | 1.03 | 0.43 | –
5 | Cc1cn(CCCCCCCCOC(=O)[C@]23CCC(C)(C)C[C@H]2C2=CC[C@@H]4[C@@]5(C)CC[C@H](O)C(C)(C)[C@@H]5CC[C@@]4(C)[C@]2(C)CC3)c(=O)[nH]c1=O | 8.72 | 1.11 | 0.29 | 16.1 | 0.23 | –
6 | CC1(C)CC[C@]2(C(=O)O)CC[C@]3(C)C(=CC[C@@H]4[C@@]5(C)CC[C@H](O)C(C)(C)[C@@H]5CC[C@]43C)[C@@H]2C1 [OLEANOLIC_ACID] | 15.9 | 16.3 | 23.7 | 12.6 | 72.7 | –
7 | CC1(C)CC[C@]2(C(=O)OCCCCCCn3ccc(=O)n(CCCCCCOC(=O)[C@]45CCC(C)(C)C[C@H]4C4=CC[C@@H]6[C@@]7(C)CC[C@H](O)C(C)(C)[C@@H]7CC[C@@]6(C)[C@]4(C)CC5)c3=O)CC[C@]3(C)C(=CC[C@@H]4[C@@]5(C)CC[C@H](O)C(C)(C)[C@@H]5CC[C@]43C)[C@@H]2C1 | 0.99 | 6.98 | 0.68 | < 0.1 | 15.5 | –
8 | Cc1cn(CCCCCCOC(=O)[C@]23CCC(C)(C)C[C@H]2C2=CC[C@@H]4[C@@]5(C)CC[C@H](O)C(C)(C)[C@@H]5CC[C@@]4(C)[C@]2(C)CC3)c(=O)n(CCCCCCOC(=O)[C@]23CCC(C)(C)C[C@H]2C2=CC[C@@H]4[C@@]5(C)CC[C@H](O)C(C)(C)[C@@H]5CC[C@@]4(C)[C@]2(C)CC3)c1=O | 4.84 | < 0.1 | 0.62 | 33.6 | 0.87 | –
9 | CC1(C)CC[C@]2(C(=O)OCCn3ccc(=O)n(CCOC(=O)[C@]45CCC(C)(C)C[C@H]4C4=CC[C@@H]6[C@@]7(C)CC[C@H](O)C(C)(C)[C@@H]7CC[C@@]6(C)[C@]4(C)CC5)c3=O)CC[C@]3(C)C(=CC[C@@H]4[C@@]5(C)CC[C@H](O)C(C)(C)[C@@H]5CC[C@]43C)[C@@H]2C1 | 111 | 9.21 | 0.86 | 29.8 | – | Not Active
10 | O=c1[nH]cc(F)c(=O)[nH]1 [FLUOROURACIL] | 55.7 | 22.6 | 8.82 | 21.5 | 12.2 | –
